Assay results as given in US20110313001A1, “TRIAZOLE DERIVATIVES FOR TREATMENT OF ALZHEIMER'S DISEASE” (priority 2008, published 2011).
Structures can show the parent of a compound that is named as a salt.

test system: Aβ(1-42); assay: Cell-based γ-secretase assay, Aβ(1-42) inhibition; conditions: Homo sapiens; SH-SY5Y neuroblastoma cells overexpressing SPA4CT
Description: Cell-Based γ-Secretase Assay
Human SH-SY5Y neuroblastoma cells overexpressing the direct γ-secretase substrate SPA4CT were induced with sodium butyrate (10 mM) for 4 hours prior to plating. Cells were plated at 35,000 cells/well/100 μl in 96-well plates in phenol red-free MEM/10% FBS, 50 mM HEPES, 1% Glutamine and incubated for 2 hrs at 37° C., 5% CO2.
Compounds for testing were diluted into Me2SO to give a ten point dose-response curve. Typically 10 μl of these diluted compounds in Me2SO were further diluted into 182 μl dilution buffer (phenol red-free MEM/10% FBS, 50 mM HEPES, 1% Glutamine) and 10 μl of each dilution was added to the cells in 96-well plates (yielding a final Me2SO concentration of 0.5%). Appropriate vehicle and inhibitor controls were used to determine the window of the assay.
After incubation overnight at 37° C., 5% CO2, 25 μl and 50 μl media were transferred into a standard Meso avidin-coated 96-well plate for detection of Aβ(40) and Aβ(42) peptides, respectively. 25 μl Meso Assay buffer (PBS, 2% BSA, 0.2% Tween-20) was added to the Aβ(40) wells followed by the addition of 25 μl of the respective antibody premixes to the wells:
Aβ(40) premix: 1 μg/ml ruthenylated G2-10 antibody, 4 μg/ml; and biotinylated 4G8 antibody diluted in Origen buffer
Aβ(42) premix: 1 μg/ml ruthenylated G2-11 antibody, 4 μg/ml; and biotinylated 4G8 antibody diluted in Origen buffer
(Biotinylated 4G8 antibody supplied by Signet Pathology Ltd; G2-10 and G2-11 antibodies supplied by Chemicon)
After overnight incubation of the assay plates on a shaker at 4° C., the Meso Scale Sector 6000 Imager was calibrated according to the manufacturer's instructions. After washing the plates 3 times with 150 μl of PBS per well, 150 μl Meso Scale Discovery read buffer was added to each well and the plates were read on the Sector 6000 Imager according to the manufacturer's instructions.
LD50 and IC50 values for inhibition of Aβ(40) and Aβ(42) were calculated by nonlinear regression fit analysis using the appropriate software (eg. Excel fit). The total signal and the background were defined by the corresponding Me2SO and inhibitor controls.

First: COc1cc(-c2cn(Cc3cc(C(F)(F)F)cc(C(F)(F)F)c3)nn2)ccc1-c1ccnc(C)c1 [Example 1, 4-{4-[1-(3,5-Bis-trifluoromethyl-benzyl)-1H-1,2,3-triazol-4-yl]-2-methoxy-phenyl}-2-methyl-pyridine trifluoromethansulfonate salt]
Second: COc1cc(-c2cn(Cc3cc(F)cc(Cl)c3)nn2)ccc1-c1ccnc(C)c1 [Example 4]
The IC50 of the first is 2.9-fold lower: 203 nM for the first, 598 nM for the second.

First: COc1cc(-c2cn(Cc3ccc(C(C)(C)C)cc3)nn2)ccc1-c1ccnc(C)c1 [Example 3]
Second: COc1cc(-c2cn(Cc3ccc4c(c3)C(C)(C)CCC4(C)C)nn2)ccc1-c1ccnc(C)c1 [Example 6]
The IC50 of the first is 1.9-fold higher: 335 nM for the first, 172 nM for the second.

In the case of COc1cc(-c2cn(Cc3ccc(-c4nc5ccccc5o4)cc3)nn2)ccc1-c1ccnc(C)c1 [Example 5], the IC50 is reported as 392 nM.
